Two compounds from patent US4136179A, “2,2-Dimethyl-19-nor-steroids” (Roussel Uclaf, priority 1976, dated 1979) can be followed below.

The subject of this test is aldosterone monoacetate. Kind of test: Anti-aldosterone activity in surrenalectomized rats (urinary sodium/potassium). In kind it is in vivo, rat (male, Sprague-Dawley). Particulars: for % inhibition of the activity of 1 μg/kg of aldosterone monoacetate: surrenalectomized male Sprague-Dawley rats, aldosterone 1 μg/kg s.c., 4 hours urine, sodium and potassium; for antialdosterone activity (in words): orally administered. The method, then: Male rats of the Sprague-Dawley strain weighing about 180 g were surrenalectomized and at that moment, the rats received with their drinking water physiological serum. On the 4th day, the animals were fasted for 16 hours and then received as drinking water water containing 5% glucose. The test product was administered orally at the end of 16 hours in the form of a suspension in 0.25% carboxymethylcellulose. One hour after the administration of the product, they received intraperitoneally a surcharge of aqueous sodium chloride at a rate of 5 ml per 100 g of body weight of […] physiological serum and subcutaneously 1 μg/kg of an alcoholic solution of 2.5% of aldosterone acetate. The animals were placed in diuresis cages without food or drink for 4 hours. At the end of this time, a miction was forced by pressure on the bladder and the volume of urine was adjusted to 50 ml and the amount of sodium and potassium was determined with an autoanalyser. The results expressed as the percentage of inhibition of the activity of 1 μg/kg of aldosterone monoacetate injected subcutaneously with the ratio of [formula] in the surrenalectomized rats is reported in the following Table.

`CC1(C)CC2C(=CC1=O)CCC1C2CCC2(C)C(C(=O)CO)CCC12` (stereo not shown) [Example 3, 2,2-dimethyl-19-nor-Δ^4-pregnene-21-ol-3,20-dione]: the “antialdosterone activity (in words)” value is listed as “interesting antialdosterone activity”. For the setting “oral dose 5 mg/kg”, the “% inhibition of the activity of 1 μg/kg of aldosterone monoacetate” value came to 50%.
Regarding `CC1(C)CC2=C3C=CC4(C)C(C(=O)CO)CCC4C3CCC2=CC1=O` (stereo not shown) [Example 9, 2,2-dimethyl-19-nor-Δ^4,9,11-pregnatriene-21-ol-3,20-dione], the “antialdosterone activity (in words)” value is listed as “interesting antialdosterone activity”. Besides, the “% inhibition of the activity of 1 μg/kg of aldosterone monoacetate” value (oral dose 10 mg/kg) was found to be 91%.
